Measured values: PubChem BioAssay AID1963980 (Molecular Pharmacology Branch, DTP, NCI, 2024)

System: 475296-252-R-J1-PDC spheroid viability
Test: Anticancer human tumor 475296-252-R-J1-PDC patient-derived rectal carcinoma cell line growth inhibition [PI3K]
Details: spheroids with HUVEC and MSC; for IC50: curve of first compound; for viability, T/C: stronger effect = lower value
In short: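 Multi-cell spheroids combine tumor cells with HUVEC and human MSCs, treated with targeted agents alone or with inavolisib, alpelisib, duvelisib or copanlisib. Concentrations fall in half-log steps from at or near clinical Cmax, or from 10 microM where Cmax is unknown; viability read-out.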
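Also: spheroids exposed to agents for seven days before readout.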

- IC50 (second compound 0.0316 µM): > 10 µM
- IC50 (second compound 0.1 µM): > 10 µM
- IC50 (second compound 0.316 µM): > 10 µM
- IC50 (second compound 1 µM): > 10 µM
- IC50 (second compound 3.16 µM): > 10 µM
- IC50 (second compound 10 µM): > 10 µM
SMILES: CC1(C)CCC(Nc2ncc(C(F)(F)F)c(-c3c[nH]c4c(P(C)(C)=O)c(C#N)ccc34)n2)CN1 (configuration not stated) + Cc1nc(NC(=O)N2CCCC2C(N)=O)sc1-c1ccnc(C(C)(C)C(F)(F)F)c1
- viability, T/C (second compound 0.0316 µM, first compound 0.0316 µM): 89.6%
- viability, T/C (second compound 0.0316 µM, first compound 0.1 µM): 90.4%
- viability, T/C (second compound 0.0316 µM, first compound 0.316 µM): 119%
- viability, T/C (second compound 0.0316 µM, first compound 1 µM): 139%
- viability, T/C (second compound 0.0316 µM, first compound 3.16 µM): 178%
- viability, T/C (second compound 0.0316 µM, first compound 10 µM): 82.4%
- viability, T/C (second compound 0.1 µM, first compound 0.0316 µM): 97.2%
- viability, T/C (second compound 0.1 µM, first compound 0.1 µM): 96.4%
- viability, T/C (second compound 0.1 µM, first compound 0.316 µM): 106%
- viability, T/C (second compound 0.1 µM, first compound 1 µM): 142%
- viability, T/C (second compound 0.1 µM, first compound 3.16 µM): 176%
- viability, T/C (second compound 0.1 µM, first compound 10 µM): 91.7%
- viability, T/C (second compound 0.316 µM, first compound 0.0316 µM): 95.2%
- viability, T/C (second compound 0.316 µM, first compound 0.1 µM): 104%
- viability, T/C (second compound 0.316 µM, first compound 0.316 µM): 97.3%
- viability, T/C (second compound 0.316 µM, first compound 1 µM): 129%
- viability, T/C (second compound 0.316 µM, first compound 3.16 µM): 193%
- viability, T/C (second compound 0.316 µM, first compound 10 µM): 83.2%
- viability, T/C (second compound 1 µM, first compound 0.0316 µM): 100%
- viability, T/C (second compound 1 µM, first compound 0.1 µM): 111%
- viability, T/C (second compound 1 µM, first compound 0.316 µM): 110%
- viability, T/C (second compound 1 µM, first compound 1 µM): 143%
- viability, T/C (second compound 1 µM, first compound 3.16 µM): 165%
- viability, T/C (second compound 1 µM, first compound 10 µM): 81.5%
- viability, T/C (second compound 3.16 µM, first compound 0.0316 µM): 99.3%
- viability, T/C (second compound 3.16 µM, first compound 0.1 µM): 106%
- viability, T/C (second compound 3.16 µM, first compound 0.316 µM): 109%
- viability, T/C (second compound 3.16 µM, first compound 1 µM): 121%
- viability, T/C (second compound 3.16 µM, first compound 3.16 µM): 139%
- viability, T/C (second compound 3.16 µM, first compound 10 µM): 72.9%
- viability, T/C (second compound 10 µM, first compound 0.0316 µM): 104%
- viability, T/C (second compound 10 µM, first compound 0.1 µM): 97.1%
- viability, T/C (second compound 10 µM, first compound 0.316 µM): 94%
- viability, T/C (second compound 10 µM, first compound 1 µM): 107%
- viability, T/C (second compound 10 µM, first compound 3.16 µM): 121%
- viability, T/C (second compound 10 µM, first compound 10 µM): 62.9%
